Values quoted from earlier work, collected in paper PMC9686322 (Frontiers in Neurology, 2022).

Columns and labels:
[1] = set-up: method as in PMID 15956161, PMID 10626097, PMID 21080186
[2] = set-up: method as in PMID 29847694

## N[C@@H](Cc1ccc(O)c(O)c1)C(=O)O [levodopa]
[1]
  Threshold plasma concentration to achieve sustained relief of PD symptoms: about 1,000 ng/ml
[2]
  Plasma half-life: 1.5 to 2.5 h
